Reference: PubChem BioAssay AID1259407 (Chemical Carcinogenesis Research Information System (CCRIS), 2018)
Activity calls are given as the source filed them. The rule behind the calls is not given here.

System: CCRIS mutagenicity, Ames/micronucleus/aberration tests
Test: CCRIS mutagenicity studies
[1] = Test System: AMES SALMONELLA TYPHIMURIUM, Strain/Indicator: TA98, Metabolic Activation: HAMSTER, LIVER, S-9, AROCLOR 1254 (10%), Method: PREINCUBATION
[2] = Test System: AMES SALMONELLA TYPHIMURIUM, Strain/Indicator: TA98, Metabolic Activation: NONE, Method: PREINCUBATION
[3] = Test System: AMES SALMONELLA TYPHIMURIUM, Strain/Indicator: TA100, Metabolic Activation: HAMSTER, LIVER, S-9, AROCLOR 1254 (10%), Method: PREINCUBATION
[4] = Test System: AMES SALMONELLA TYPHIMURIUM, Strain/Indicator: TA100, Metabolic Activation: NONE, Method: PREINCUBATION
[5] = Test System: AMES SALMONELLA TYPHIMURIUM, Strain/Indicator: TA1535, Metabolic Activation: HAMSTER, LIVER, S-9, AROCLOR 1254 (10%), Method: PREINCUBATION
[6] = Test System: AMES SALMONELLA TYPHIMURIUM, Strain/Indicator: TA1535, Metabolic Activation: NONE, Method: PREINCUBATION
[7] = Test System: AMES SALMONELLA TYPHIMURIUM, Strain/Indicator: TA1535, Metabolic Activation: RAT, LIVER, S-9, AROCLOR 1254 (10%), Method: PREINCUBATION
[8] = Test System: AMES SALMONELLA TYPHIMURIUM, Strain/Indicator: TA98, Metabolic Activation: RAT, LIVER, S-9, AROCLOR 1254, Method: PREINCUBATION
[9] = Test System: AMES SALMONELLA TYPHIMURIUM, Strain/Indicator: TA1537, Metabolic Activation: NONE, Method: PREINCUBATION
[10] = Test System: AMES SALMONELLA TYPHIMURIUM, Strain/Indicator: TA98, Metabolic Activation: NONE, Method: STANDARD PLATE
[11] = Test System: AMES SALMONELLA TYPHIMURIUM, Strain/Indicator: TA98, Metabolic Activation: RAT, LIVER, S-9, AROCLOR 1254, Method: STANDARD PLATE
[12] = Test System: AMES SALMONELLA TYPHIMURIUM, Strain/Indicator: TA100, Metabolic Activation: NONE, Method: STANDARD PLATE
[13] = Test System: AMES SALMONELLA TYPHIMURIUM, Strain/Indicator: TA100, Metabolic Activation: RAT, LIVER, S-9, AROCLOR 1254, Method: STANDARD PLATE

Measured: mutagenic call

S=[Se]
active: End Point: IN VITRO CHROMOSOMAL ABERRATIONS, Test System: CHO-LB CELLS, Metabolic Activation: NONE active; positive | End Point: IN VITRO CHROMOSOMAL ABERRATIONS, Test System: CHO-LB CELLS, Metabolic Activation: RAT, LIVER, S-9, AROCLOR 1254 active; positive | Test System: AMES SALMONELLA TYPHIMURIUM, Strain/Indicator: TA97, Metabolic Activation: HAMSTER, LIVER, S-9, AROCLOR 1254 (5 OR 10%), Method: PREINCUBATION active; positive | Test System: AMES SALMONELLA TYPHIMURIUM, Strain/Indicator: TA97, Metabolic Activation: NONE, Method: PREINCUBATION active; positive | Test System: AMES SALMONELLA TYPHIMURIUM, Strain/Indicator: TA97, Metabolic Activation: RAT, LIVER, S-9, AROCLOR 1254 (5 OR 10%), Method: PREINCUBATION active; positive | [3] active; positive
inactive: Test System: AMES SALMONELLA TYPHIMURIUM, Strain/Indicator: TA97, Metabolic Activation: HAMSTER, LIVER, S-9, AROCLOR 1254 (30%), Method: PREINCUBATION inactive; negative | Test System: AMES SALMONELLA TYPHIMURIUM, Strain/Indicator: TA97, Metabolic Activation: RAT, LIVER, S-9, AROCLOR 1254 (30%), Method: PREINCUBATION inactive; negative | [1] inactive; negative | [2] inactive; negative | Test System: AMES SALMONELLA TYPHIMURIUM, Strain/Indicator: TA98, Metabolic Activation: RAT, LIVER, S-9, AROCLOR 1254 (10%), Method: PREINCUBATION inactive; negative | Test System: AMES SALMONELLA TYPHIMURIUM, Strain/Indicator: TA100, Metabolic Activation: HAMSTER, LIVER, S-9, AROCLOR 1254 (5%), Method: PREINCUBATION inactive; negative | [4] inactive; negative | Test System: AMES SALMONELLA TYPHIMURIUM, Strain/Indicator: TA100, Metabolic Activation: RAT, LIVER, S-9, AROCLOR 1254 (5 OR 10%), Method: PREINCUBATION inactive; negative | [5] inactive; negative | [6] inactive; negative | [7] inactive; negative

C=CCOCC1CO1 (configuration not stated)
inactive: Test System: AMES SALMONELLA TYPHIMURIUM, Strain/Indicator: TA98, Metabolic Activation: HAMSTER, LIVER, S-9, AROCLOR 1254, Method: PREINCUBATION inactive; negative | [2] inactive; negative | [8] inactive; negative | Test System: AMES SALMONELLA TYPHIMURIUM, Strain/Indicator: TA1537, Metabolic Activation: HAMSTER, LIVER, S-9, AROCLOR 1254, Method: PREINCUBATION inactive; negative | [9] inactive; negative | Test System: AMES SALMONELLA TYPHIMURIUM, Strain/Indicator: TA1537, Metabolic Activation: RAT, LIVER, S-9, AROCLOR 1254, Method: PREINCUBATION inactive; negative
active: End Point: IN VITRO CHROMOSOMAL ABERRATIONS, Test System: CHL CELLS, Metabolic Activation: NONE active; positive (structural changes) | End Point: IN VITRO CHROMOSOMAL ABERRATIONS, Test System: CHL CELLS, Metabolic Activation: RAT, LIVER, S-9, SODIUM PHENOBARBITAL AND 5,6-BENZOFLAVONE active; positive (structural changes | Test System: AMES SALMONELLA TYPHIMURIUM, Strain/Indicator: TA100, Metabolic Activation: HAMSTER, LIVER, S-9, AROCLOR 1254, Method: PREINCUBATION active; positive | [4] active; positive | Test System: AMES SALMONELLA TYPHIMURIUM, Strain/Indicator: TA100, Metabolic Activation: RAT, LIVER, S-9, AROCLOR 1254, Method: PREINCUBATION active; positive | Test System: AMES SALMONELLA TYPHIMURIUM, Strain/Indicator: TA1535, Metabolic Activation: HAMSTER, LIVER, S-9, AROCLOR 1254, Method: PREINCUBATION active; positive | [6] active; positive | Test System: AMES SALMONELLA TYPHIMURIUM, Strain/Indicator: TA1535, Metabolic Activation: RAT, LIVER, S-9, AROCLOR 1254, Method: PREINCUBATION active; positive

O=CC(Br)CBr (configuration not stated)
inactive: Test System: UDS RAT HEPATOCYTES, Strain/Indicator: THY INCORP, Metabolic Activation: NONE inactive; negative
active: [4] active; positive | Test System: AMES SALMONELLA TYPHIMURIUM, Strain/Indicator: TA100, Metabolic Activation: RAT, LIVER, MICROSOMES, Method: PREINCUBATION active; positive

OC1Cc2cc3cccc4ccc5ccc1c2c5c43 (configuration not stated)
active: Test System: AMES SALMONELLA TYPHIMURIUM, Strain/Indicator: TA98, Metabolic Activation: HUMAN, LIVER, CYTOSOL, PAPS, Method: PREINCUBATION active; positive

O=C1CCC(=O)N1c1ccc(Cl)c(Cl)c1Cl
inactive: [10] inactive; negative | [11] inactive; negative | [12] inactive; negative | [13] inactive; negative

Cn1ccnc1[N+](=O)[O-]
active: [12] active; positive

O=C(n1ccnc1)n1ccnc1
inactive: [10] inactive; negative | [11] inactive; negative | [12] inactive; negative | [13] inactive; negative | Test System: AMES SALMONELLA TYPHIMURIUM, Strain/Indicator: TA1535, Metabolic Activation: NONE, Method: STANDARD PLATE inactive; negative | Test System: AMES SALMONELLA TYPHIMURIUM, Strain/Indicator: TA1535, Metabolic Activation: RAT, LIVER, S-9, AROCLOR 1254, Method: STANDARD PLATE inactive; negative | Test System: AMES SALMONELLA TYPHIMURIUM, Strain/Indicator: TA1537, Metabolic Activation: NONE, Method: STANDARD PLATE inactive; negative | Test System: AMES SALMONELLA TYPHIMURIUM, Strain/Indicator: TA1537, Metabolic Activation: RAT, LIVER, S-9, AROCLOR 1254, Method: STANDARD PLATE inactive; negative

O=[N+]([O-])c1ccc2ccc3c4ccccc4c([N+](=O)[O-])c4ccc1c2c43
active: Test System: AMES SALMONELLA TYPHIMURIUM, Strain/Indicator: TA98(1,8-DNP6), Metabolic Activation: NONE active; positive | Test System: AMES SALMONELLA TYPHIMURIUM, Strain/Indicator: TA98(NR), Metabolic Activation: NONE active; positive | Test System: AMES SALMONELLA TYPHIMURIUM, Strain/Indicator: TA98(NR), Metabolic Activation: NONE, Method: PREINCUBATION active; positive | Test System: AMES SALMONELLA TYPHIMURIUM, Strain/Indicator: TA98, Metabolic Activation: NONE active; positive | [2] active; positive | [10] active; positive | [12] active; positive

OC/C(Br)=C(\Br)CO
inactive: [2] inactive; negative | [4] inactive; negative | [6] inactive; negative | [9] inactive; negative | Test System: AMES SALMONELLA TYPHIMURIUM, Strain/Indicator: TA1537, Metabolic Activation: RAT, LIVER, S-9, AROCLOR 1254 (10%), Method: PREINCUBATION inactive; negative
active: [1] active; positive | [8] active; positive | [3] active; positive | Test System: AMES SALMONELLA TYPHIMURIUM, Strain/Indicator: TA100, Metabolic Activation: RAT, LIVER, S-9, AROCLOR 1254 (10%), Method: PREINCUBATION active; positive | [5] active; positive | [7] active; positive | Test System: AMES SALMONELLA TYPHIMURIUM, Strain/Indicator: TA1537, Metabolic Activation: HAMSTER, LIVER, S-9, AROCLOR 1254 (10%), Method: PREINCUBATION active; positive
